Source: patent US20150216898A1, “COMPOSITION FOR TREATING PSORIASIS” (PSORIASIS+CREAMS SWEDEN AB, priority 2012, published 2015)

System: subjects suffering from psoriasis
Test: Previous treatment(s) of the subjects (anamnesis)
Type: in vivo, human
Details: Subject 4; previous treatment supplemented with moisturisers and emollients; responded well at first, more frequent relapses later
Description: The subject had been diagnosed with psoriasis for nearly 25 years ago and had previously used combinations of local corticosteroids and emollient and moisturizing creams. Further, the subject had also tried photo therapy as well as a topical tar based product (Skillingarydsalvan Original). […] Further, the subject experienced side-effects (e g skin damage, such as skin thinning, changes in pigmentation, easy bruising, stretch marks, redness and dilated surface blood vessels) typically seen with treatment with corticosteroids.
Previous treatment(s): The subject had used corticosteroids such as mometasone furoate, prednicarbate and most recently calcitriol, always supplementing the treatment with moisturisers and emollients.

SMILES	effect of previous treatment over time
C=C1/C(=C\C=C2/CCC[C@]3(C)[C@@H]([C@H](C)CCCC(C)(C)O)CC[C@@H]23)C[C@@H](O)C[C@@H]1O [calcitriol]	no longer as effective
C[C@@H]1C[C@H]2[C@@H]3CCC4=CC(=O)C=C[C@]4(C)[C@@]3(Cl)[C@@H](O)C[C@]2(C)[C@@]1(OC(=O)c1ccco1)C(=O)CCl [mometasone furoate]	no longer as effective
CCOC(=O)O[C@]1(C(=O)COC(=O)CC)CC[C@H]2[C@@H]3CCC4=CC(=O)C=C[C@]4(C)[C@H]3[C@@H](O)C[C@@]21C [prednicarbate]	no longer as effective
